≈ marks a conversion by molar mass, not a printed value. Read-outs that look alike come from different tables or passages of the source.
What was measured:
[1] = test system: human liver cancer cell strain HepG2; test: MTT growth inhibition on HepG2; format: cell-based; settings: Homo sapiens, read-out: IC50 HepG2;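 note: adherent cells in 96-well plates treated with a concentration series for 24, 48 or 72 h, MTT absorbance read at 490 nm, inhibition computed relative to untreated control wells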
Method: (§1) By using an MTT method, a sample solution to be tested was added to a 96-well plate in which cancer cells were adherently grown. Culturing was performed for a certain period, and the growth inhibition effect of a compound on a human cancer cell strain for primary screening was measured to determine the anti-cancer activity of the compound.
(§2) Cell culture: A cell incubator was set to conditions of 37° C., 5% CO2, and a saturated humidity, cells were cultured under these conditions, and the cell medium was a DMEM complete medium, wherein 10% fetal bovine serum, 100 IU/mL penicillin, and 100 μg/mL streptomycin were comprised.
The single cell suspension was diluted to 5×10^3/100 μL after counting, inoculated on a 96-well cell culture plate (triplicate), and adherently cultured overnight;
After 24 h of adhesion, the complete medium was discarded, 100 μL-sample-solutions to be tested having different concentrations were sequentially added to the 96-well plate according to a concentration gradient, and incubations were continued for 24 h, 48 h, and 72 h;
The culture liquid was discarded, a 0.5 mg/mL MTT diluted working liquid was added, and incubation was performed for 4 h by placing in an incubator;
(§3) The culture liquid was discarded, 100 μL of DMSO was added, low-speed oscillation was performed for 10 min by placing on a shaker, and the spectrophotometric value of each well was measured at a wavelength of 490 nm by using a microplate reader. Statistical analysis was performed and tumor cell growth inhibition rate was calculated according to the equation: Growth inhibition rate=(OD value of control group−OD value of experimental group)/OD value of control group.
Culturing was performed for a certain period, the growth inhibition effect of a compound on 3 human cancer cell strains for primary screening was measured to determine the anti-cancer activity of the compound, and a growth inhibition curve was plotted.

liver cancer cells = test: MTT growth inhibition on liver cancer cells; format: cell-based; settings: Homo sapiens
Method: as §1, §2
The single cell suspension was diluted to 5×10^3/100 μL after counting, inoculated on a 96-well cell culture plate (triplicate), and adherently cultured overnight; […]
as §3

HepG2 cells [2] = test: Apoptosis induction, Annexin V and PI double-staining, flow cytometry; format: cell-based, human; settings: HepG2, 24 h; sorafenib 4 μg/mL; combination 4 μg/mL sorafenib+5 μg/mL FICD
Method: Different concentrations of FICD were added on the second day, culture was continued for 24 h, cells were collected and washed 3 times with precooled PBS, and adherent cells were digested with trypsin free of EDTA. The solutions were combined, centrifuged, and washed 3 times again with precooled PBS. 400 μL of solution containing 5 μL of V-FITC and 10 μL of PI was added, incubation was performed at room temperature under protection from light, and detection was performed by flowcytometry after 30 min.

HepG2 cells [3] = test: Cell cycle distribution by flow cytometry; format: cell-based, human; settings: sorafenib 5 μg/mL, FICD 10 μg/mL, combination 5 μg/mL FICD+10 μg/mL sorafenib
Method: 1 mL of 70% precooled (−20° C.) ethanol was added to the cell precipitate, homogenized by pipetting, and fixed at 4° C. overnight. On the second day, HepG2 cells was collected by centrifugation, 2 mL of precooled PBS was added for washing 3 times, 500 μL of PBS containing 50 μg/mL […] (PI) and 100 μg/mL RNaseA was added, and incubation was performed at 4° C. under protection from light for 30 min. Detection was performed on a flow cytometer, and results can be seen in FIG. 9 and FIG. 10.

HepG2 cells [4] = test: Apoptosis induction by laser confocal scanning microscope; format: cell-based, human; settings: HepG2, 48 h
Method: Two solutions (a former one and a later one) were mixed, centrifugation was performed at 1000 r/min for 5 min, the supernatant was discarded, and washing was performed for 3 times with PBS. The cell precipitate was resuspended in Binding Buffer, 10 μL of a FITC-Annen V staining liquid was added, homogenized by pipetting slightly, and reaction was performed under protection from light. PI was added for staining for 15 min, centrifugation was performed, the supernatant was discarded, and washing was performed for 3 times again with PBS. A glass slide was loaded by applying the cell precipitate thereto and mounted with non-fluorescent buffering glycerol, a laser confocal scanning microscope was immediately used for observation and taking photographs at wavelengths of 488 nm and 560 nm. Meanwhile, cells without AnneixnV-FITC and PI added were used as a negative control.

[5] = test system: C-Myc, Ki-67, CylinD1, β-Catenin protein; test: Western blotting, protein expression in HepG2 cells; format: cell-based, human; settings: sorafenib 4 μg/mL, high FICD dosage 20 μg/mL, combination 4 μg/mL sorafenib+10 μg/mL FICD
Method: Method: Gel electrophoresis of protein samples. Gel formulation: All components were added to a small beaker according to a formulation of a separation gel, uniformly mixed with slightly shaking to prevent the generation of bubbles, quickly applied to a seam of a glass plate with a 1 mL pipette, and then blocked with double distilled water to prevent oxidation. After 30 min, the separation gel solidified, the double distilled water thereof was poured off, waster was suctioned with a filter paper, a 5% concentration gel was formulated, TEMED was finally loaded onto the glass plate, and a 1.0 mm comb was inserted into the concentration gel and placed at room temperature for 30 min. The comb was slightly, vertically, and carefully pulled up, various groups of 20 μL protein samples were pipetted with a microsyringe, an equal volume of a loading buffer and an equal volume of a loading buffer containing 3 μL of Marker were separately added to a loading well, an electrophoresis instrument was switched on after electrodes were plugged, gels were run at 75V for 30 min, and the voltage was changed to 120V and gels were run for 2 h when bromophenol blue reaches the separation gel. Membrane transfer: A PVDF membrane having a suitable size was cut according to the size of the gel, placed in a methanol solution for 1 min, lifted, and placed and soaked together with a well cut filter paper in a previously precooled membrane transfer buffer. A sponge pad, three layers of filter paper, a gel, three layers of filter paper, and a sponge pad, in this order from top to bottom, were placed in a membrane transfer tank, and a precooled membrane transfer buffer was then added. Several ice bags were placed circumferentially to prevent an excessively hot external environment, and electrodes were plugged and membrane transfer was performed at a constant current of […] for 2.5 hours. Blocking and incubation of antibodies: A transferred membrane was cut into desired bands, which were placed in a blocking solution of 5% skim milk powder, placed on a shaker, and shaken at room temperature at a low speed for 1 h. A primary antibody was diluted with the blocking solution, a corresponding antibody was pipetted and added to a zip lock bag, the PVDF membrane was then placed in the antibody dilution, bubbles in the zip lock bag were evacuated, and the zip lock bag was sealed and placed in a refrigerator at 4° C. overnight. The membrane was withdrawn from the zip lock bag on the second day, and placed in a clean dish. A TBST solution was added and washed 3 times on a low-speed shaker, 10 min for each time. […]

[6] = In vivo absorption in mice, intragastric versus intraperitoneal administration; parameters: species or system white Kunming mice; settings: inferred from no statistical difference between administration manners
Text: The aim of this experiment was to investigate in vivo tumor growth inhibition effect of FICD on white Kunming mice bearing ascites hepatoma H22 induced solid tumor, discuss in vivo absorption of FICD in mice, and investigate the druggability and the selection of administration manners of FICD, among different administration manners (intragastric administration and intraperitoneal injection administration). The specific protocol of investigation was as follows:
Test method: For the test method, see Example 24. Results can be seen in FIG. 15, FIG. 16, and Table 5.

- IC50 ([1]; HepG2, 48 h, after 48 h of action): 10.1 ± 1.2 µg/mL
- IC50 ([1]; HepG2, Table 1, MTT): 17.2 µM
- IC50 ([1]; HepG2, Table 2, MTT): 17.2 µM
- IC50 (liver cancer cells): 10 to 20 µg/mL (≈ 17.3 to 34.6 µM)
- in vivo absorption after oral administration [6]: well absorbed
Compound: COc1cc(NC(=O)Nc2ccc(Cl)c(C(F)(F)F)c2)c2c(c1O)-c1c(OC)c(OC)cc3c1C(C2)N(C)CC3 (stereo not drawn) [Compound 1]
- apoptosis rate (HepG2 cells [2]): 11.93%
- cell cycle distribution compared to the blank control group (HepG2 cells [3]): cells significantly increased in the G2/M phase and decreased in the G0/G1 phase
- apoptosis and cell morphology, Anneixn V-FITC and PI double-staining (HepG2 cells [4]): apoptoses occurred during various phases
- expressions of C-Myc, Ki-67, CylinD1 and β-Catenin protein compared to the blank group [5]: significantly reduced
